# Reference: patent publication US8084649B2, “Herbicides” (Syngenta Crop Protection, inc., priority 2007, dated 2011)
# Columns and labels:
# Type in all cases: in vivo
# [1] = test system: Alopecurus myosuroides (ALOMY); assay: Pre-emergence herbicidal activity, glasshouse pot test; details: Alopecurus myosuroides, 480 h, rate 500 g/ha, evaluated after 20 days, read-out: Pre-emergence activity, ALOMY (100=total damage to plant; 0=no damage to plant)
# Procedure: (§1) Monocotyledonous and dicotyledonous test plants were sown in sterilised standard soil in pots. After cultivation for one day (pre-emergence) or after 10 days cultivation (post-emergence) under controlled conditions in a glasshouse, the plants were sprayed with an aqueous spray solution derived from the formulation of the technical active ingredient in 0.6 ml acetone and 45 ml formulation solution containing 10.6% Emulsogen EL (Registry number 61791-12-6), 42.2% N-methylpyrrolidone, 42.2% dipropylene glycol monomethyl ether (Registry number 34590-94-8) and 0.2% X-77 (Registry number 11097-66-8). The test plants were then grown in a greenhouse under optimum conditions until, 14 or 15 days later for post-emergence and 20 days for pre-emergence, the test was evaluated (100=total damage to plant; 0=no damage to plant). Alopecurus myosuroides (ALOMY), Avena fatua (AVEFA), Lolium perenne (LOLPE), Setaria faberi (SETFA), Digitaria sanguinalis (DIGSA), Echinochloa crus-galli (ECHCG) Pre-Emergence Activity
# Avena fatua (AVEFA) [2] = assay: as above; details: Avena fatua, 480 h, rate 500 g/ha, evaluated after 20 days, read-out: Pre-emergence activity, AVEFA (100=total damage to plant; 0=no damage to plant)
# Procedure: as §1
# [3] = test system: Digitaria sanguinalis (DIGSA); assay: as above; details: Digitaria sanguinalis, 480 h, rate 500 g/ha, evaluated after 20 days, read-out: Pre-emergence activity, DIGSA (100=total damage to plant; 0=no damage to plant)
# Procedure: as §1
# [4] = test system: Echinochloa crus-galli (ECHCG); assay: as above; details: Echinochloa crus-galli, 480 h, rate 500 g/ha, evaluated after 20 days, read-out: Pre-emergence activity, ECHCG (100=total damage to plant; 0=no damage to plant)
# Procedure: as §1
# Lolium perenne (LOLPE) [5] = assay: as above; details: Lolium perenne, 480 h, rate 500 g/ha, evaluated after 20 days, read-out: Pre-emergence activity, LOLPE (100=total damage to plant; 0=no damage to plant)
# Procedure: as §1
# Setaria faberi (SETFA) [6] = assay: as above; details: Setaria faberi, 480 h, rate 500 g/ha, evaluated after 20 days, read-out: Pre-emergence activity, SETFA (100=total damage to plant; 0=no damage to plant)
# Procedure: as §1
# [7] = test system: Alopecurus myosuroides (ALOMY); assay: Post-emergence herbicidal activity, glasshouse pot test; details: Alopecurus myosuroides, evaluated after 14 or 15 days, read-out: Post-emergence activity, ALOMY (100=total damage to plant; 0=no damage to plant); for pest or weed control at 125 g/ha: rate 125 g/ha
# Procedure: as §1, with “Post-Emergence” for “Pre-Emergence”
# Avena fatua (AVEFA) [8] = assay: as above; details: Avena fatua, evaluated after 14 or 15 days, read-out: Post-emergence activity, AVEFA (100=total damage to plant; 0=no damage to plant); for pest or weed control at 125 g/ha: rate 125 g/ha
# Procedure: as §1, with “Post-Emergence” for “Pre-Emergence”
# [9] = test system: Digitaria sanguinalis (DIGSA); assay: as above; details: Digitaria sanguinalis, evaluated after 14 or 15 days, read-out: Post-emergence activity, DIGSA (100=total damage to plant; 0=no damage to plant); for pest or weed control at 125 g/ha: rate 125 g/ha
# Procedure: as §1, with “Post-Emergence” for “Pre-Emergence”
# [10] = test system: Echinochloa crus-galli (ECHCG); assay: as above; details: Echinochloa crus-galli, evaluated after 14 or 15 days, read-out: Post-emergence activity, ECHCG (100=total damage to plant; 0=no damage to plant); for pest or weed control at 125 g/ha: rate 125 g/ha
# Procedure: as §1, with “Post-Emergence” for “Pre-Emergence”
# Lolium perenne (LOLPE) [11] = assay: as above; details: Lolium perenne, evaluated after 14 or 15 days, read-out: Post-emergence activity, LOLPE (100=total damage to plant; 0=no damage to plant); for pest or weed control at 125 g/ha: rate 125 g/ha
# Procedure: as §1, with “Post-Emergence” for “Pre-Emergence”
# Setaria faberi (SETFA) [12] = assay: as above; details: Setaria faberi, evaluated after 14 or 15 days, read-out: Post-emergence activity, SETFA (100=total damage to plant; 0=no damage to plant); for pest or weed control at 125 g/ha: rate 125 g/ha
# Procedure: as §1, with “Post-Emergence” for “Pre-Emergence”
smiles,measurement,setting,value
CCc1cc(C)cc(CC)c1C1=C(OC(C)=O)CC2(CCOCC2)CC1=O [Compound P1],pest or weed control at 500 g/ha,[1],100%
same,pest or weed control at 500 g/ha,Avena fatua (AVEFA) [2],100%
same,pest or weed control at 500 g/ha,[3],100%
same,pest or weed control at 500 g/ha,[4],100%
same,pest or weed control at 500 g/ha,Lolium perenne (LOLPE) [5],100%
same,pest or weed control at 500 g/ha,Setaria faberi (SETFA) [6],100%
same,pest or weed control at 125 g/ha,[7],50%
same,pest or weed control at 125 g/ha,Avena fatua (AVEFA) [8],60%
same,pest or weed control at 125 g/ha,[9],50%
same,pest or weed control at 125 g/ha,[10],50%
same,pest or weed control at 125 g/ha,Lolium perenne (LOLPE) [11],30%
same,pest or weed control at 125 g/ha,Setaria faberi (SETFA) [12],30%
CCc1cc(C)cc(CC)c1C1=C(OC(=O)C(C)C)CC2(CCOCC2)CC1=O [Compound P3],pest or weed control at 500 g/ha,[1],100%
same,pest or weed control at 500 g/ha,Avena fatua (AVEFA) [2],100%
same,pest or weed control at 500 g/ha,[3],100%
same,pest or weed control at 500 g/ha,[4],100%
same,pest or weed control at 500 g/ha,Lolium perenne (LOLPE) [5],100%
same,pest or weed control at 500 g/ha,Setaria faberi (SETFA) [6],100%
same,pest or weed control at 125 g/ha,[7],100%
same,pest or weed control at 125 g/ha,Avena fatua (AVEFA) [8],100%
same,pest or weed control at 125 g/ha,[9],90%
same,pest or weed control at 125 g/ha,[10],100%
same,pest or weed control at 125 g/ha,Lolium perenne (LOLPE) [11],100%
same,pest or weed control at 125 g/ha,Setaria faberi (SETFA) [12],90%
CCc1cc(C)cc(CC)c1C1=C(OC(=O)C(C)(C)C)CC2(CCOCC2)CC1=O [Compound P4],pest or weed control at 500 g/ha,[1],100%
same,pest or weed control at 500 g/ha,Avena fatua (AVEFA) [2],100%
same,pest or weed control at 500 g/ha,[3],100%
same,pest or weed control at 500 g/ha,[4],90%
same,pest or weed control at 500 g/ha,Lolium perenne (LOLPE) [5],100%
same,pest or weed control at 500 g/ha,Setaria faberi (SETFA) [6],100%
same,pest or weed control at 500 g/ha,[7]; rate 500 g/ha,100%
same,pest or weed control at 500 g/ha,Avena fatua (AVEFA) [8]; rate 500 g/ha,90%
same,pest or weed control at 500 g/ha,[9]; rate 500 g/ha,80%
same,pest or weed control at 500 g/ha,[10]; rate 500 g/ha,100%
same,pest or weed control at 500 g/ha,Lolium perenne (LOLPE) [11]; rate 500 g/ha,100%
same,pest or weed control at 500 g/ha,Setaria faberi (SETFA) [12]; rate 500 g/ha,80%
CCc1cc(C)cc(CC)c1C1=C(OC(=O)CC(C)C)CC2(CCOCC2)CC1=O [Compound P5],pest or weed control at 500 g/ha,[1],100%
same,pest or weed control at 500 g/ha,Avena fatua (AVEFA) [2],100%
same,pest or weed control at 500 g/ha,[3],100%
same,pest or weed control at 500 g/ha,[4],100%
same,pest or weed control at 500 g/ha,Lolium perenne (LOLPE) [5],100%
same,pest or weed control at 500 g/ha,Setaria faberi (SETFA) [6],100%
same,pest or weed control at 125 g/ha,[7],100%
same,pest or weed control at 125 g/ha,Avena fatua (AVEFA) [8],100%
same,pest or weed control at 125 g/ha,[9],100%
same,pest or weed control at 125 g/ha,[10],100%
same,pest or weed control at 125 g/ha,Lolium perenne (LOLPE) [11],100%
same,pest or weed control at 125 g/ha,Setaria faberi (SETFA) [12],90%
CCc1cc(C)cc(CC)c1C1=C(OC(=O)Cc2ccc(F)cc2)CC2(CCOCC2)CC1=O [Compound P7],pest or weed control at 500 g/ha,[1],40%
same,pest or weed control at 500 g/ha,Avena fatua (AVEFA) [2],80%
same,pest or weed control at 500 g/ha,[3],100%
same,pest or weed control at 500 g/ha,[4],70%
same,pest or weed control at 500 g/ha,Lolium perenne (LOLPE) [5],100%
same,pest or weed control at 500 g/ha,Setaria faberi (SETFA) [6],100%
same,pest or weed control at 125 g/ha,[7],80%
same,pest or weed control at 125 g/ha,Avena fatua (AVEFA) [8],80%
same,pest or weed control at 125 g/ha,[9],80%
same,pest or weed control at 125 g/ha,[10],80%
same,pest or weed control at 125 g/ha,Lolium perenne (LOLPE) [11],100%
same,pest or weed control at 125 g/ha,Setaria faberi (SETFA) [12],80%
